Measurements reported in US20230295152A1 (SENDA BIOSCIENCES, INC., priority 2019, published 2023).

The molecules below were run against T1, AHR (Homo sapiens, UniProt P35869) (assay: DRE-Luciferase Reporter Assay, HepG2 AhR-Lucia reporter cells). Settings: with AHR activating ligand at EC50, read-out: HepG2-Luc IC50.
T1 construct: other cell line with a DRE-luciferase reporter stably transfected; endogenous in cells; host or cells: HepG2 AhR-Lucia reporter cells
T1 sequence (P35869 11-848): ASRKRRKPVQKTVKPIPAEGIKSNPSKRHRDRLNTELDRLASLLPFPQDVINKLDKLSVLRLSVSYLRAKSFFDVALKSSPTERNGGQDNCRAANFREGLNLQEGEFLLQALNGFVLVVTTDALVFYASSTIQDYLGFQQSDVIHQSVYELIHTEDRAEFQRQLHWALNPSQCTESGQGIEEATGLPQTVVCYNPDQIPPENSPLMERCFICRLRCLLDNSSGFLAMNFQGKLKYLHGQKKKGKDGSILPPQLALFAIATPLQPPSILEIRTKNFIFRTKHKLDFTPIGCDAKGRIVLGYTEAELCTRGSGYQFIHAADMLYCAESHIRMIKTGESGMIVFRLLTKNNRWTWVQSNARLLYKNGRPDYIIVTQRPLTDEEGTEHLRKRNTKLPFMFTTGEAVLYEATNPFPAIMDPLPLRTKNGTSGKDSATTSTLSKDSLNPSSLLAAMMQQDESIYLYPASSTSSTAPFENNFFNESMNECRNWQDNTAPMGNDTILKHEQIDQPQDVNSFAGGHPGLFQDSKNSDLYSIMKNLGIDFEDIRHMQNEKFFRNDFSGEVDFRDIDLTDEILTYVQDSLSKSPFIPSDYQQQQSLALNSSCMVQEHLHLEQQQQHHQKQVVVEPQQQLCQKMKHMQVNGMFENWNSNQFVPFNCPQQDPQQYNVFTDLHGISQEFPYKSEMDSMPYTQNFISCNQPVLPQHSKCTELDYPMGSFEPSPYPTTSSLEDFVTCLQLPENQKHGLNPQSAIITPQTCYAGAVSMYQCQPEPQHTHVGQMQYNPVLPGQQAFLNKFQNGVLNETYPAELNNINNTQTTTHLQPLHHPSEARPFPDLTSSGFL
Type: cell-based
Text: AHR binds to Dioxin Responsive Elements (DRE) upstream of genes that it activates. One measure of AHR activity is activation of a reporter gene, such as luciferase, downstream of one or multiple DRE elements. Luciferase activity will reflect activation and inhibition of AHR in the cells expressing his reporter. 20000 Human HepG2 liver carcinoma—AhR-Lucia reporter cells or Human HT29 colon adenocarcinoma—AhR reporter cells or other cell line with a DRE-luciferase reporter stably transfected were plated in Eagle's Minimal Essential Medium, 10% heat-inactivated FBS, 1× non-essential amino acids Pen-Strep (10,000 U/mL) and Normocin (100 ug/mL) in plates (96-well, 384-well or other plates) and incubated overnight at 37° C. in a CO2 incubator and treated with and without AhR antagonists at a log dilution starting at 100 uM.
After 1 hr that cells were plated an AHR activating ligand, such as TCDD, kynurenine, ITE (2-(1H-indole-3-ylcarbonyl)-4-thiazolecarboxylic methyl ester), VAF347, BNF (beta-naphthoflavone), FICZ (6-formylindolo(3,2-b) carbazole) or other AHR ligands at their specific EC50 concentration, were added to the cells with or without AHR antagonist.
Cells were incubated for 24 or 48 hours or another time point and then, supernatant was analyzed for determination of luciferase activity as a read-out of the AHR activation or inhibition. Luciferase was measured with the commercial kit QUANTI-Luc™ assay solution kit from Invivogen following the manufacturer's instructions.
The level of luciferase with only agonist ligand added was the maximum signal while the luciferase with […] was the minimum signal. IC50 values were determined as the concentration which inhibits half of the luciferase activity.

| IC50 | SMILES |
| --- | --- |
| > 500 nM | C[C@@H](CO)n1cnc2c(-c3cccnc3)nc(C3=CCCCC3)cc2c1=O [Compound 77, (S)-6-(Cyclohex-1-en-1-yl)-3-(1-hydroxypropan-2-yl)-8-(pyridin-3-yl)pyrido[3,4-d]pyrimidin-4(3H)-one] |
| < 100 nM | Cn1cc(-c2nc(-c3ccc(Cl)cc3)cc3c(=O)n([C@@H]4COC[C@@H]4O)cnc23)cn1 [Compound 131, 6-(4-chlorophenyl)-3-((3R,4R)-4-hydroxytetrahydrofuran-3-yl)-8-(1-methyl-1H-pyrazol-4-yl)pyrido[3,4-d]pyrimidin-4(3H)-one] |
| < 100 nM | C[C@@H](C(=O)N(C)C)n1cnc2c(-c3cccnc3)nc(-c3ccc(C(F)(F)F)nc3)cc2c1=O [Compound 157, (S)—N,N-dimethyl-2-(4-oxo-8-(pyridin-3-yl)-6-(6-(trifluoromethyl)pyridin-3-yl)pyrido[3,4-d]pyrimidin-3(4H)-yl)propenamide] |
| < 100 nM | CC(C)(O)Cn1cnc2c(-c3cccnc3)nc(-c3cnc(C(F)(F)F)s3)cc2c1=O [Compound 87] |
| 100 to 500 nM | Cc1ncc(-c2cc3c(=O)n([C@@H](C)CO)cnc3c(-c3cccnc3)n2)cn1 [Compound 93] |
| < 100 nM | CC(C)c1ncc(-c2cc3c(=O)n([C@@H](C)CO)cnc3c(-c3cccnc3)n2)s1 [Compound 67] |
| < 100 nM | Cc1ccc(-c2cc3c(=O)n([C@@H](C)CO)cnc3c(-c3cccnc3)n2)cn1 [Compound 98] |
| 100 to 500 nM | C[C@@H](CO)n1cnc2c(-c3cccnc3)nc(-c3cnsc3)cc2c1=O [Compound 53] |
| < 100 nM | O=c1c2cc(-c3cnc(C(F)(F)F)s3)nc(-c3cccnc3)c2ncn1[C@H]1COC[C@@H]1O [Compound 169, 3-((3S,4R)-4-hydroxytetrahydrofuran-3-yl)-8-(pyridin-3-yl)-6-(2-(trifluoromethyl)thiazol-5-yl)pyrido[3,4-d]pyrimidin-4(3H)-one] |
| > 500 nM | C[C@@H](CO)n1cnc2c(-c3cccnc3)nc(-c3cncs3)cc2c1=O [Compound 84] |
| > 500 nM | Cn1cc(-c2cc3c(=O)n(CC(C)(C)O)cnc3c(-c3cnn(C)c3)n2)cn1 [Compound 19] |
| < 100 nM | C[C@@H](O)Cn1cnc2c(-c3cnn(C)c3)nc(-c3ccc(C(F)(F)F)nc3)cc2c1=O [Compound 108, (R)-3-(2-hydroxypropyl)-8-(1-methyl-1H-pyrazol-4-yl)-6-(6-(trifluoromethyl)pyridin-3-yl)pyrido[3,4-d]pyrimidin-4(3H)-one] |
| < 100 nM | Cc1ccc(-c2cc3c(=O)n([C@@H](C)CO)cnc3c(-c3cccnc3)n2)nc1 [Compound 186, (S)-3-(1-hydroxypropan-2-yl)-6-(5-methylpyridin-2-yl)-8-(pyridin-3-yl)pyrido[3,4-d]pyrimidin-4(3H)-one] |
| < 100 nM | O=c1c2cc(-c3ccc(C(F)(F)F)nc3)nc(-c3cccnc3)c2ncn1C1CCS(=O)(=O)C1 (stereo not shown) [Compound 106, 3-(1,1-dioxidotetrahydrothiophen-3-yl)-8-(pyridin-3-yl)-6-(6-(trifluoromethyl)pyridin-3-yl)pyrido[3,4-d]pyrimidin-4(3H)-one] |
| < 100 nM | Cn1cc(-c2nc(-c3ccc(C4CC4)nc3)cc3c(=O)n(C[C@@H](O)C(F)(F)F)cnc23)cn1 [Compound 135, (R)-6-(6-cyclopropylpyridin-3-yl)-8-(1-methyl-1H-pyrazol-4-yl)-3-(3,3,3-trifluoro-2-hydroxypropyl)pyrido[3,4-d]pyrimidin-4(3H)-one] |
| > 500 nM | CC(C)(O)Cn1cnc2c(-c3cccnc3)nc(-c3cccnc3)cc2c1=O [Compound 59] |
| > 500 nM | COC(=O)c1ccc(-c2cc3c(=O)n([C@@H](C)CO)cnc3c(-c3cccnc3)n2)cn1 [Compound 52] |

| IC50 | SMILES |
| --- | --- |
| < 100 nM | CCN(CC)c1nc(-c2ccc(C(F)(F)F)nc2)cc2c(=O)n([C@@H](C)CO)cnc12 [Compound 174, (S)-8-(diethylamino)-3-(1-hydroxypropan-2-yl)-6-(6-(trifluoromethyl)pyridin-3-yl)pyrido[3,4-d]pyrimidin-4(3H)-one] |
| > 500 nM | C[C@@H](CO)n1cnc2c(-c3cccnc3)nc(Cl)cc2c1=O [Compound 11, (S)-6-chloro-3-(1-hydroxypropan-2-yl)-8-(pyridin-3-yl)pyrido[3,4-d]pyrimidin-4(3H)-one] |
| 100 to 500 nM | C[C@@H](CO)n1cnc2c(-c3cccnc3)nc(-c3cccnc3)cc2c1=O [Compound 20] |
| < 100 nM | Cn1cc(-c2nc(-c3cnc(C(F)(F)F)s3)cc3c(=O)n([C@@H]4COC[C@H]4O)cnc23)cn1 [Compound 172, 3-((3R,4S)-4-hydroxytetrahydrofuran-3-yl)-8-(1-methyl-1H-pyrazol-4-yl)-6-(2-(trifluoromethyl)thiazol-5-yl)pyrido[3,4-d]pyrimidin-4(3H)-one] |
| < 100 nM | Cn1cc(-c2nc(-c3ccc(Cl)cc3)cc3c(=O)n([C@@H]4COC[C@H]4O)cnc23)cn1 [Compound 153, 6-(4-Chlorophenyl)-3-((3R,4S)-4-hydroxytetrahydrofuran-3-yl)-8-(1-methyl-1H-pyrazol-4-yl)pyrido[3,4-d]pyrimidin-4(3H)-one] |
| < 100 nM | Cn1cc(-c2nc(-c3ccc(C(F)(F)F)cn3)cc3c(=O)n([C@@H]4COC[C@H]4O)cnc23)cn1 [Compound 138, 3-((3R,4S)-4-hydroxytetrahydrofuran-3-yl)-8-(1-methyl-1H-pyrazol-4-yl)-6-(5-(trifluoromethyl)pyridin-2-yl)pyrido[3,4-d]pyrimidin-4(3H)-one] |
| > 500 nM | C[C@@H](CO)n1cnc2c(-c3ccc(=O)n(C)c3)nc(-c3ccc(Cl)cc3)cc2c1=O [Compound 73] |
| < 100 nM | C[C@@H](CO)n1cnc2c(-n3cccn3)nc(-c3ccc(Cl)cc3)cc2c1=O [Compound 166, (S)-6-(4-chlorophenyl)-3-(1-hydroxypropan-2-yl)-8-(1H-pyrazol-1-yl)pyrido[3,4-d]pyrimidin-4(3H)-one] |
| 100 to 500 nM | Cc1cc(Cl)ccc1-c1cc2c(=O)n(CC(C)(C)O)cnc2c(-c2cnn(C)c2)n1 [Compound 61] |
| 100 to 500 nM | Cc1ncsc1-c1cc2c(=O)n([C@@H](C)CO)cnc2c(-c2cccnc2)n1 [Compound 65] |
| 100 to 500 nM | C[C@@H](CO)n1cnc2c(-c3cccc4c3OCO4)nc(-c3ccc(Cl)cc3)cc2c1=O [Compound 3] |
| < 100 nM | COC(=O)[C@H](C)n1cnc2c(-c3cccnc3)nc(-c3ccc(C(F)(F)F)nc3)cc2c1=O [Compound 127, Methyl (S)-2-(4-oxo-8-(pyridin-3-yl)-6-(6-(trifluoromethyl)pyridin-3-yl)pyrido[3,4-d]pyrimidin-3(4H)-yl)propanoate] |
| < 100 nM | C[C@@H](CO)n1cnc2c(N3CCCC3)nc(-c3ccc(C(F)(F)F)nc3)cc2c1=O [Compound 176, (S)-3-(1-hydroxypropan-2-yl)-8-(pyrrolidin-1-yl)-6-(6-(trifluoromethyl)pyridin-3-yl)pyrido[3,4-d]pyrimidin-4(3H)-one] |
| 100 to 500 nM | C[C@@H](CO)n1cnc2c(-c3cccnc3)nc(-c3ccccn3)cc2c1=O [Compound 182, (S)-3-(1-hydroxypropan-2-yl)-6-(pyridin-2-yl)-8-(pyridin-3-yl)pyrido[3,4-d]pyrimidin-4(3H)-one] |
| < 100 nM | CC(C)[C@@H](CO)n1cnc2c(-c3cccc(F)c3)nc(-c3ccc(Cl)cc3)cc2c1=O [Compound 90] |
| 100 to 500 nM | O=c1c2cc(-c3cccnc3)nc(-c3cccnc3)c2ncn1CC(O)C(F)(F)F (stereo not shown) [Compound 10] |
| < 100 nM | CN1CC(O)C(n2cnc3c(-c4cccnc4)nc(-c4ccc(Cl)cc4)cc3c2=O)C1 (stereo not shown) [Compound 128, 6-(4-chlorophenyl)-3-(4-hydroxy-1-methylpyrrolidin-3-yl)-8-(pyridin-3-yl)pyrido[3,4-d]pyrimidin-4(3H)-one] |
